Source: BindingDB's records for patent US20250034165 (Chia Tai Tianqing Pharmaceutical Group, 2025)

What was measured:
[1] = biological target: Epidermal growth factor receptor (Homo sapiens, UniProt P00533); assay: Inhibitory Activity for EGFR (WT) Kinase
Procedure: A 50 ng/μL EGFR (WT, Carna) stock solution was diluted with a kinase buffer (50 mM HEPES, 10 mM MgCl2, 2 mM DTT, 1 mM EGTA, 0.01% Tween 20), and 6 μL of 1.67× working solution at 0.005 ng/μL (final concentration: 0.003 ng/μL) was added to each well. Different compounds dissolved in DMSO were added to the wells using a nanoliter pipettor, resulting in the final concentrations of the compounds of 100 nM to 0.0244 nM (4-fold gradient for 7 concentrations in total), and blank control wells (without enzyme) and negative control wells (with enzyme, plus vehicle DMSO) were set, 2 replicate wells for each concentration. After enzyme was reacted with the compound or vehicle for 30 min, 5×ATP at 25 μM (final concentration: 5 μM, Sigma) prepared with a kinase buffer was mixed with 5× substrate at 0.5 μM (final concentration: 0.1 μM, ULight-poly GT, PerkinElmer) at a ratio of 1:1 (v:v), and the mixture was added to each well at 4 μL/well. After being sealed with a film, the plate was incubated at room temperature for 2 h, and then 5 μL of 4×EDTA at 40 mM (final concentration: 10 mM) was added to each well. After the plate was incubated for 5 min at room temperature, 5 μL of 4× detection reagent at 8 nM (final concentration: 2 nM, Eu-anti-phospho-tyrosine antibody, PerkinElmer) was added to each well.

[2] = biological target: Epidermal growth factor receptor [T790M,C797S,L858R] (UniProt P00533, C797S/L858R/T790M); assay: Inhibitory Activity for EGFR (L858R/T790M/C797S) Kinase
Epidermal growth factor receptor [T790M,C797S,L858R], sequence (P00533 25-1210 T790M/C797S/L858R limits assumed): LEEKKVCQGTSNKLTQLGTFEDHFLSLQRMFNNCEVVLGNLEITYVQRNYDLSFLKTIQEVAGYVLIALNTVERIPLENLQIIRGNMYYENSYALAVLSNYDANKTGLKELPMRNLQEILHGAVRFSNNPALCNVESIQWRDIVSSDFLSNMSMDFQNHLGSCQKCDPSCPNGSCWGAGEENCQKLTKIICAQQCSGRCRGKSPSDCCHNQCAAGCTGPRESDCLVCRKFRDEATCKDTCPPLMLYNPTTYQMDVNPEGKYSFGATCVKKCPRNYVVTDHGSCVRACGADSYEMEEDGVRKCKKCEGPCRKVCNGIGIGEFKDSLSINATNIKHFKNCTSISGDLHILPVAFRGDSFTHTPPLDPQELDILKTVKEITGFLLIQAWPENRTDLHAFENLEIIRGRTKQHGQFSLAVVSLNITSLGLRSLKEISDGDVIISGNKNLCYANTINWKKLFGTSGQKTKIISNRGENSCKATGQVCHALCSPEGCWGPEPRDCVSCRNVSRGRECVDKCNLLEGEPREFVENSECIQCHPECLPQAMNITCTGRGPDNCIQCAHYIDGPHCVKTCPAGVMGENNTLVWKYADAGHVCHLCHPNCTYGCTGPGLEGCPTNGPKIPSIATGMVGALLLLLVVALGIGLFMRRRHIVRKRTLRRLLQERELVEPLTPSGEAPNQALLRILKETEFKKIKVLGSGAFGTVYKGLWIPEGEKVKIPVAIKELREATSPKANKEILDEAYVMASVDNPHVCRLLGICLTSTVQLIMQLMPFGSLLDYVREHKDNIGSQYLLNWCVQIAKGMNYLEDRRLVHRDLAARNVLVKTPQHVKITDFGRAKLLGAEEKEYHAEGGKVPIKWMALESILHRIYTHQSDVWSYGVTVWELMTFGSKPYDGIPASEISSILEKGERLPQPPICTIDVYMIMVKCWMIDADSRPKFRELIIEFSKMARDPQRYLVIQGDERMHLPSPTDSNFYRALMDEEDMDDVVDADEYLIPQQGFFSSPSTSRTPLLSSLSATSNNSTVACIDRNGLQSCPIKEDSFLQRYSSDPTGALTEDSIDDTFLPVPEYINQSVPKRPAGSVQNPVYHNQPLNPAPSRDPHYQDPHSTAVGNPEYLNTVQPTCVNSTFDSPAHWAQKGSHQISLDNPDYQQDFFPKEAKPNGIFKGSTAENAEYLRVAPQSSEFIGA
Procedure: (§1) A 50 ng/μL EGFR (L858R/T790M/C797S, BPS) stock solution was diluted with a kinase buffer (50 mM HEPES, 10 mM MgCl2, 2 mM DTT, 1 mM EGTA, 0.01% Tween 20), and 6 μL of 1.67× working solution at 0.00167 ng/μL (final concentration: 0.001 ng/μL) was added to each well. Different compounds dissolved in DMSO were added to wells using a nanoliter pipettor, resulting in the final concentrations of the compounds of 10 nM to 0.0024 nM (4-fold gradient, 7 concentrations in total), and blank control wells (without enzyme) and negative control wells (with enzyme, plus vehicle DMSO) were set, 2 replicate wells for each concentration. After enzyme was reacted with the compound or vehicle for 30 min, 5×ATP at 25 μM (final concentration: 5 μM, Sigma) prepared with a kinase buffer was mixed with 5× substrate at 0.5 μM (final concentration: 0.1 μM, ULight-poly GT, PerkinElmer) at a ratio of 1:1 (v:v), and the mixture was added to each well at 4 μL/well. After being sealed with a film, the plate was incubated at room temperature for 2 h, and then 5 μL of 4×EDTA at 40 mM (final concentration: 10 mM) was added to each well. After the plate was incubated for 5 min at room temperature, 5 μL of 4× detection reagent at 8 nM (final concentration: 2 nM, Eu-anti-phospho-tyrosine antibody, PerkinElmer) was added to each well. After being incubated at room temperature for 1 h, the plate was read using a PerkinElmer Envision multi-mode microplate reader (excitation: 320 nm, emission: 665 nm), and IC50 was calculated by four-parameter fitting.

[3] = biological target: Epidermal growth factor receptor (EGFR)(L858R)(T790M) (Homo sapiens, UniProt P00533, L858R/T790M); assay: Inhibitory Activity for EGFR (L858R/T790M) Kinase
Epidermal growth factor receptor (EGFR)(L858R)(T790M), sequence (P00533 25-1210 T790M/L858R limits assumed): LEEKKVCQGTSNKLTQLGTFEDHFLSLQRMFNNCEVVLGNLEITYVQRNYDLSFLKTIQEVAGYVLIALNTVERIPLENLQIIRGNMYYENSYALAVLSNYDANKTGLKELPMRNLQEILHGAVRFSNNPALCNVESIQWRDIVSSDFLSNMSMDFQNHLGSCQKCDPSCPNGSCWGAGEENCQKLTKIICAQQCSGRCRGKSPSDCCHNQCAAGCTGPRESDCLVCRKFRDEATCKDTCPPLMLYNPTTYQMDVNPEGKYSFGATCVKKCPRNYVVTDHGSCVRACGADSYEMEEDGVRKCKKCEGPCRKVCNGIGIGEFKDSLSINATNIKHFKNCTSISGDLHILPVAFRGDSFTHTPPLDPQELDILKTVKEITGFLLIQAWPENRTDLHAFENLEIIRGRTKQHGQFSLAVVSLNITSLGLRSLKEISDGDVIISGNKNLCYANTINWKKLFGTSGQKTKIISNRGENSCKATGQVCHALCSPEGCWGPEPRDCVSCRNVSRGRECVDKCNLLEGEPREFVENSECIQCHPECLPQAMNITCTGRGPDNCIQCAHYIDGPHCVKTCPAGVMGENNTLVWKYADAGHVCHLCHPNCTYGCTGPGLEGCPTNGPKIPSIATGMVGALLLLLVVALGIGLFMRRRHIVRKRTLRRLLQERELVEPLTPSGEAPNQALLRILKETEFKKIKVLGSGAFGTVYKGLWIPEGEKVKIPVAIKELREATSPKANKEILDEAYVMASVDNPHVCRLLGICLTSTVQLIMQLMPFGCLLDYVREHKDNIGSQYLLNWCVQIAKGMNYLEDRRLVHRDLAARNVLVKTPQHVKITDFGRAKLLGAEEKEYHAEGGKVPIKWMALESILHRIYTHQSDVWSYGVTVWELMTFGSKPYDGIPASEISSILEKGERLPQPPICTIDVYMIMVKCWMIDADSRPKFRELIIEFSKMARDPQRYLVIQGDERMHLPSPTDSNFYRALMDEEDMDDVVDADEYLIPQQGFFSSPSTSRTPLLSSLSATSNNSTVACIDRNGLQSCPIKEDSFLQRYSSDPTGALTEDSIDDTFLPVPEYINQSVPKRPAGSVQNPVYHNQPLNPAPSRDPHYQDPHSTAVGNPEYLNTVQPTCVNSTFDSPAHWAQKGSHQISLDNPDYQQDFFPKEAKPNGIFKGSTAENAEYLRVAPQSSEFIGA
Procedure: as §1, with “(L858R/T790M, Carna)” for “(L858R/T790M/C797S, BPS)”, “0.004175” for “0.00167”, “0.0025” for “0.001”

Epidermal growth factor receptor, sequence (P00533 whole entry): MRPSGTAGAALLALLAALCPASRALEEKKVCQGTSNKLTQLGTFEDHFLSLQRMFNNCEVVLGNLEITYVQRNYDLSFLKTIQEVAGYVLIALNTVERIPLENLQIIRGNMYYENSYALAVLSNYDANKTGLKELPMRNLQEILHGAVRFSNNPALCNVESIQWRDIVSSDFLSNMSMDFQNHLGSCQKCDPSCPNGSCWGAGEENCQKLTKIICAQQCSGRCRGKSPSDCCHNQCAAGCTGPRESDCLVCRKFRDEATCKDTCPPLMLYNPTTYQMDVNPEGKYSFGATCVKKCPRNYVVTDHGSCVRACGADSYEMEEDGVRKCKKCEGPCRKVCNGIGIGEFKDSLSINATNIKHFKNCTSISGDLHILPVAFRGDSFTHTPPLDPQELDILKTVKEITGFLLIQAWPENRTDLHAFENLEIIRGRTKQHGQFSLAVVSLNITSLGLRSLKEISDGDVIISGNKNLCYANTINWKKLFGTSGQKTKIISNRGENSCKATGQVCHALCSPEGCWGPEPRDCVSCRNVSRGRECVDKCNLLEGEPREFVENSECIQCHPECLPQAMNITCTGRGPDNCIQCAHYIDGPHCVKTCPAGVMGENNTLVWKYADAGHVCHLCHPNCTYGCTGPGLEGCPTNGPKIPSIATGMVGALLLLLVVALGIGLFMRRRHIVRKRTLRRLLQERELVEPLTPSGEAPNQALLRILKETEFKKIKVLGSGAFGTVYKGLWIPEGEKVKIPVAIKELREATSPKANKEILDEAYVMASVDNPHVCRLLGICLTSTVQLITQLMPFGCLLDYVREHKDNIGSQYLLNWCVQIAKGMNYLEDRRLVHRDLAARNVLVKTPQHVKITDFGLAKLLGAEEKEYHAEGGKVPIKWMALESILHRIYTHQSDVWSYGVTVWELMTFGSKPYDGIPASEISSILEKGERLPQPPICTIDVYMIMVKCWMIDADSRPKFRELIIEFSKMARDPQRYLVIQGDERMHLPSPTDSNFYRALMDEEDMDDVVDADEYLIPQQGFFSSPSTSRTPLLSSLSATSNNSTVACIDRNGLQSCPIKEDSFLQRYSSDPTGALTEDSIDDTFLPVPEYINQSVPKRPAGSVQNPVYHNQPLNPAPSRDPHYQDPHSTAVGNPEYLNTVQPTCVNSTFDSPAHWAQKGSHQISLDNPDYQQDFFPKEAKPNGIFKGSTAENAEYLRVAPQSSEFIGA

Row | SMILES | IC50 [1] [pM] | IC50 [2] [pM] | IC50 [3] [pM]
1 | Cc1cc2cc(n1)-c1cnn(C)c1OCCC[C@@H](C1CC1)CN1/C(=N/C2=O)Nc2cc(NCCN3CCOCC3)ccc21 [US20250034165, Example 3] | 864 | 22 | 
2 | Cc1cc2cc(n1)-c1cnn(C3CC3)c1OCCC[C@@H](C)CN1/C(=N/C2=O)Nc2cc(NCCN3CCOCC3)ccc21 [US20250034165, Example 5] | 3100 |  | 91
3 | Cc1cc2cc(n1)-c1cnn(C)c1OCCC[C@@H](C1CC1)CN1/C(=N/C2=O)Nc2cc(NC3CCN(C)CC3)ccc21 [US20250034165, Example 10] | 120 | 19 | 20
4 | Cc1cc2cc(n1)-c1cnn(C)c1OCCC[C@@H](C1CC1)CN1/C(=N/C2=O)Nc2ccc(OCCN(C)C)cc21 [US20250034165, Example 11] | 1900 | 55 | 44
5 | Cc1cc2cc(n1)-c1cnn(C3CC3)c1OCCC[C@@H](C)CN1/C(=N/C2=O)Nc2cc(NC3CCN(C)CC3)ccc21 [US20250034165, Example 12] | 2600 | 200 | 190
6 | Cc1cc2cc(n1)-c1cnn(C3CC3)c1OCCC[C@@H](C)CN1/C(=N/C2=O)Nc2cc(N[C@@H]3CCOC3)ccc21 [US20250034165, Example 13] | 2000 | 95 | 88
7 | Cc1cc2cc(n1)-c1cnn(C3CC3)c1OCCC[C@@H](C)CN1/C(=N/C2=O)Nc2cc(NC[C@H]3COCCO3)ccc21 [US20250034165, Example 14] | 4000 |  | 110
8 | Cc1cc2cc(n1)-c1cnn(C3CC3)c1OCCC[C@@H](C)CN1/C(=N/C2=O)Nc2ccc(N3CC[C@H](O)C3)cc21 [US20250034165, Example 16] | 3400 | 120 | 
9 | Cc1cc2cc(n1)-c1cnn(C3CC3)c1OCCC[C@@H](C)CN1/C(=N/C2=O)Nc2ccc(NCCN(C)C)cc21 [US20250034165, Example 17] | 700 | 8 | 11
10 | Cc1cc2cc(n1)-c1cnn(C)c1OCCC[C@@H](C1CC1)CN1/C(=N/C2=O)Nc2cc(N[C@@H]3CCCOC3)ccc21 [US20250034165, Example 18] | 1700 | 51 | 
11 | Cc1cc2cc(n1)-c1cnn(C)c1OCCC[C@@H](C1CC1)CN1/C(=N/C2=O)Nc2cc(NC[C@H]3COCCO3)ccc21 [US20250034165, Example 19] | 1800 | 35 | 
12 | Cc1cc2cc(n1)-c1cnn(C)c1OCCC[C@@H](C1CC1)CN1/C(=N/C2=O)Nc2ccc(NC3CCN(C)CC3)cc21 [US20250034165, Example 20] | 200 |  | 16
13 | Cc1cc2cc(n1)-c1cnn(C)c1OCCC[C@@H](C1CC1)CN1/C(=N/C2=O)Nc2ccc(N3CC[C@H](O)C3)cc21 [US20250034165, Example 21] | 2400 | 75 | 
14 | Cc1cc2cc(n1)-c1cnn(C)c1OCCC[C@@H](C1CC1)CN1/C(=N/C2=O)Nc2cc(NCC3CCOCC3)ccc21 [US20250034165, Example 22] | 2000 | 52 | 40
15 | Cc1cc2cc(n1)-c1cnn(C)c1OCCC[C@@H](C1CC1)CN1/C(=N/C2=O)Nc2ccc(NCCCN(C)C)cc21 [US20250034165, Example 27] | 780 | 33 | 30
16 | Cc1cc2cc(n1)-c1cnn(C)c1OCCC[C@@H](C1CC1)CN1/C(=N/C2=O)Nc2cc(NC3(C)COC3)ccc21 [US20250034165, Example 29] | 1400 | 21 | 19

Row | SMILES | IC50 [1] [pM] | IC50 [2] [pM] | IC50 [3] [pM]
17 | Cc1cc2cc(n1)-c1cnn(C)c1OCCC[C@@H](C1CC1)CN1/C(=N/C2=O)Nc2cc(NC3COC3(C)C)ccc21 (stereo not given in full) [US20250034165, Example 30] | 2800 | 120 | 130
18 | Cc1cc2cc(n1)-c1cnn(C)c1OCCC[C@@H](C1CC1)CN1/C(=N/C2=O)Nc2cc(NC3C(C)(C)OC3(C)C)ccc21 [US20250034165, Example 31] | 2200 | 42 | 38
19 | Cc1cc2cc(n1)-c1cnn(C)c1OCCC[C@@H](C1CC1)CN1/C(=N/C2=O)Nc2cc(NC3CNC3)ccc21 [US20250034165, Example 32] | 340 | 29 | 18
20 | Cc1cc2cc(n1)-c1cnn(C)c1OCCC[C@@H](C1CC1)CN1/C(=N/C2=O)Nc2cc(NC3CN(C)C3)ccc21 [US20250034165, Example 33] | 470 | 12 | 
21 | Cc1cc2cc(n1)-c1cnn(C)c1OCCC[C@@H](C1CC1)CN1/C(=N/C2=O)Nc2cc(NC3(C)CNC3)ccc21 [US20250034165, Example 34] | 400 | 28 | 
22 | Cc1cc2cc(n1)-c1cnn(C)c1OCCC[C@@H](C1CC1)CN1/C(=N/C2=O)Nc2cc(NCC3COC3)ccc21 [US20250034165, Example 36] | 1500 | 35 | 33
23 | Cc1cc2cc(n1)-c1cnn(C)c1OCCC[C@@H](C1CC1)CN1/C(=N/C2=O)Nc2cc(NC(C)C3COC3)ccc21 (stereo not given in full) [US20250034165, Example 37] | 1400 | 37 | 27
24 | Cc1cc2cc(n1)-c1cnn(C)c1OCCC[C@@H](C1CC1)CN1/C(=N/C2=O)Nc2cc(N[C@@H]3CCOC3)ccc21 [US20250034165, Example 43] | 1200 | 39 | 
25 | Cc1cc2cc(n1)-c1cnn(C)c1OCCC[C@@H](C1CC1)CN1/C(=N/C2=O)Nc2cc(NC3CCN(C(C)C)CC3)ccc21 [US20250034165, Example 47] | 550 |  | 23
26 | Cc1cc2cc(n1)-c1cnn(C)c1OCCC[C@@H](C1CC1)CN1/C(=N/C2=O)Nc2cc(NCCCN)ccc21 [US20250034165, Example 50] | 1300 | 66 | 
27 | Cc1cc2cc(n1)-c1cnn(C)c1OCCC[C@@H](C1CC1)CN1/C(=N/C2=O)Nc2cc(NCCCCN(C)C)ccc21 [US20250034165, Example 51] | 1800 |  | 17
28 | Cc1cc2cc(n1)-c1cnn(C)c1OCCC[C@@H](C1CC1)CN1/C(=N/C2=O)Nc2ccc(NCCN)cc21 [US20250034165, Example 58] | 510 |  | 12
29 | Cc1cc2cc(n1)-c1cnn(C)c1OCCC[C@@H](C1CC1)CN1/C(=N/C2=O)Nc2ccc(NC(C)CN(C)C)cc21 (stereo not given in full) [US20250034165, Example 63] | 330 |  | 9
30 | Cc1cc2cc(n1)-c1cnn(C)c1OCCC[C@@H](C1CC1)CN1/C(=N/C2=O)Nc2ccc(NCCN3CCCC3)cc21 [US20250034165, Example 82] | 580 | 14 | 
31 | Cc1cc2cc(n1)-c1cnn(C)c1OCCC[C@@H](C1CC1)CN1/C(=N/C2=O)Nc2ccc(NCCCN3CCCC3)cc21 [US20250034165, Example 84] | 1200 |  | 100
